Earlier results, collected in patent publication US20030216407A1, “Use of PDE5 inhibitors in the treatment of scarring” (Pfizer Inc., priority 2002, published 2003).

Legend:
PDE6 against PDE5 = details: more potent against PDE6 than against PDE5
[1] = system: adult cardiac fibroblasts; details: substance on its own
[2] = system: normal rat kidney fibroblast collagen synthesis; details: in vitro

## CCCOc1ccccc1-c1nc2nn[nH]c2c(=O)[nH]1 [zaprinast]
PDE6 against PDE5
  potency against PDE6 relative to PDE5: five fold
[1]
  regulating cardiac fibroblast proliferation: no effect

## atrial natriurectic peptide [ANP]
[1]
  regulating cardiac fibroblast proliferation: did not on its own regulate

## Nc1nc2c(ncn2[C@@H]2O[C@@H]3COP(=O)(O)O[C@H]3[C@H]2O)c(=O)[nH]1 [cGMP]
[2]
  collagen synthesis induced by CTGF: no effect
